Test results published in US9504676B2, “Molecules inhibiting a metabolic pathway involving the Syk protein tyrosine kinase and method for identifying said molecules” (CENTRE NATIONAL DE LA RECHERCHE SCIENTIFIQUE, priority 2008, dated 2016).
Read-outs that look alike come from different tables or passages of the source.

Test system: RBL-2H3 cells
Test: cells
Type: cell-based, rat
Settings: for IC50: Rattus norvegicus
Method in brief: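 RBL-2H3 rat basophils sensitized 12-16 h with anti-DNP IgE (0.5 μg/ml), pretreated 90 min at 37° C with compound (DMF 0.25% vehicle), then stimulated 45 min with DNP-BSA (50 ng ml^−1) or ionomycin (1.5 μM). Degranulation read as β-hexosaminidase release.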

[1] = RBL-2H3 cells, read-out: Degran. IC50: concentration inhibiting mast cell degranulation by 50%
[2] = RBL-2H3 cells, 0 to 40 μM, read-out: concentration inhibiting mast cell degranulation by 50% in vitro

Row | IC50 [1] | SMILES | further results
1 | ~5 µg/mL | CCOC(=O)c1ccc(NC(=O)CSc2nnc(-c3ccco3)c(-c3ccco3)n2)cc1 [Molecule 54, ethyl 4-({[(5,6-di-2-furyl-1,2,4-triazin-3-yl)thio]acetyl}amino)benzoate] | –
2 | ~7 µg/mL | CCn1c(CCC(=O)c2ccc(Cl)cc2)nnc1SCC(=O)Nc1ccc(Br)c(C)c1C [Molecule 82] | –
3 | ~10 µg/mL | O=C(NCc1nnc(NCc2nc3ccccc3c(=O)[nH]2)n1-c1ccccc1)c1ccccc1F [Molecule 29] | –
4 | > 10 µg/mL | COc1cccc(C2C(C(=O)c3ccc(C)cc3)=C(O)C(=O)N2CCCN2CCOCC2)c1 (centres unmarked) [Molecule 4, 3-hydroxy-5-(3-methoxyphenyl)-4-(4-methylbenzoyl)-1-[3-(4-morpholinyl)propyl]-1,5-dihydro-2H-pyrrol-2-one] | –
5 | > 10 µg/mL | CCOC(=O)c1ccc(N2C(=O)C(O)=C(C(=O)c3ccccc3)C2c2ccc(ON)cc2OC)cc1 (centres unmarked) [Molecule 6] | –
6 | ~10 µg/mL | Cc1cc(C(=O)Nc2ccccc2C(=O)O)ccc1NC(=O)COc1ccc(C(C)C)cc1 [Molecule 49, 2-[(4-{[(4-isopropylphenoxy)acetyl]amino}-3-methylbenzoyl)amino] benzoic acid] | –
7 | > 10 µg/mL | COc1ccc(C)cc1NC(=O)c1ccc(CN2CCC(Cc3ccccc3)CC2)cc1 [Molecule 17, 4-[(4-benzyl-1-piperidinyl)methyl}-N-(2-methoxy-5-methylphenyl)benzamide] | –
8 | ~7 µg/mL | CCOc1ccc(NC(=O)CC2C(=O)N(c3ccc(OC)cc3)C(=S)N2CCN2CCOCC2)cc1 (centres unmarked) [Molecule 84, N-(4-ethoxyphenyl)-2-{1-(4-methoxyphenyl)-3-[2-(4-morpholinyl)ethyl]-5-oxo-2-thioxo-4-imidazolidinyl}acetamide] | –
9 | > 10 µg/mL | COc1ccc(C2C(C(=O)c3cccs3)=C(O)C(=O)N2CCCn2ccnc2)c(OC)c1 (centres unmarked) [Molecule 2] | –
10 | ~2 µg/mL | CCOC(=O)c1ccc(NC(=O)CC2C(=O)N(c3ccc(Cl)cc3)C(=S)N2Cc2cccnc2)cc1 (centres unmarked) [Molecule 61] | IC50 [2]: ~5 µM
11 | ~5 µg/mL | C=CCn1c(SCC(=O)Nc2cccc(OC)c2)nnc1C(C)NC(=O)c1ccccc1 (centres unmarked) [Molecule 66, N-{1-[4-allyl-5-({2-[(3-methoxyphenyl)amino]-2-oxoethyl}thio)-4H-1,2,4-triazol-3-yl]ethyl} benzamide] | –
12 | > 10 µg/mL | O=C(Nc1ccccc1)c1ccc(NCCN2CCOCC2)c(S(=O)(=O)N2CCOCC2)c1 [Molecule 46, 4-{[2-(4-morpholinyl)ethyl]amino}-3-(4-morpholinylsulphonyl)-N-phenylbenzamide] | –
13 | > 10 µg/mL | O=C(C1=C(O)C(=O)N(Cc2cccnc2)C1c1cccc(Oc2ccccc2)c1)c1ccc(Cl)cc1 (centres unmarked) [Molecule 1, 4-(4-chlorobenzoyl)-3-hydroxy-5-(3-phenoxyphenyl)-1-(3-pyridinylmethyl)-1,5-dihydro-2H-pyrrol-2-one] | –
14 | ~2.5 µg/mL | COc1ccccc1C(=O)Nc1ccc(-c2nnc(SCC(=O)c3ccccc3)n2C)cc1 [Molecule 15, 2-methoxy-N-(4-(4-methyl-5-[(2-oxo-2-phenylethyl)thio]-4H-1,2,4-triazol-3-yl)phenyl)benzamide] | –
15 | – | COC(=O)c1ccccc1-c1ccc(/C=C2/SC(=S)N(Cc3ccccc3)C2=O)o1 [Molecule C-13, methyl 2-{5-[(3-benzyl-4-oxo-2-thioxo-1,3-thiazolidin-5-ylidene)methyl]-2-furyl}benzoate] | ionomycin-induced degranulation: not detectably affected; IC50 (RBL-2H3, read-out: Degran. IC50: concentration inhibiting mast cell degranulation by 50%): 1 µg/mL
16 | ~2 µg/mL | COc1cc(-c2nnc(SCC(=O)Nc3ccc(Cl)cc3)n2CCc2ccccc2)cc(OC)c1OC [Molecule 59] | IC50 [2]: ~5 µM
17 | ~5 µg/mL | C=CCn1c(CNC(=O)c2cccc(C)c2)cnc1SCC(=O)Nc1cccc(C(=O)OC(C)C)c1 [Molecule 75] | –
18 | ~10 µg/mL | CCOC(=O)c1sc(N2C(=O)C(O)=C(C(=O)c3ccc(F)cc3)C2c2ccc(C)cc2)nc1C (centres unmarked) [Molecule 10, ethyl 2-[3-(4-fluorobenzoyl)-4-hydroxy-2-(4-methylphenyl)-5-oxo-2,5-dihydro-1H-pyrrol-1-yl]-4-methyl-1,3-thiazole-5-carboxylate] | –
19 | > 10 µg/mL | CCOC(=O)C1=C(C)NC2=C(C(=O)c3ccccc32)C1c1cc(Br)ccc1OCC(=O)O (centres unmarked) [Molecule 3, {4-bromo-2-[3-(ethoxy carbonyl)-2-methyl-5-oxo-4,5-dihydro-1H-indeno[1,2-b]pyridin-4-yl]phenoxy} acetic acid] | –
20 | > 10 µg/mL | COc1ccc(S(=O)(=O)N(CCc2ccccc2)CC(=O)Nc2ccc(C(N)=O)cc2)cc1 [Molecule 18] | –
